Data taken from PubChem BioAssay (NCI).
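Assay format: 96-well plates, 48-hour exposure. Definition used: TGI = concentration required for complete inhibition of growth.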

Assays:
Assay in all cases: NCI tumour cell line growth inhibition, 48 h
[1] = test system: SK-MEL-2 melanoma
[2] = test system: HCC-2998 colon
[3] = test system: IGROV1 ovarian
[4] = test system: MOLT-4 leukemia
[5] = test system: OVCAR-3 ovarian
[6] = test system: CAKI-1 renal
[7] = test system: HOP-62 NSCLC
[8] = test system: 786-0 renal
[9] = test system: M14 melanoma
[10] = test system: HT29 colon
[11] = test system: SW-620 colon
[12] = test system: LXFL 529 NSCLC
[13] = test system: RXF 393 renal
[14] = test system: SF-295 CNS
[15] = test system: SN12C renal
[16] = test system: LOX IMVI melanoma
[17] = test system: OVCAR-8 ovarian
[18] = test system: DMS 273 small cell lung
[19] = test system: HOP-18 NSCLC
[20] = test system: OVCAR-4 ovarian
[21] = test system: NCI-H23 lung
[22] = test system: U251 CNS
[23] = test system: UACC-62 melanoma
[24] = test system: SNB-75 CNS
[25] = test system: A549 NSCLC
[26] = test system: NCI-H226 lung
[27] = test system: SNB-78 CNS
[28] = test system: HCT-15 colon
[29] = test system: NCI-H522 lung
[30] = test system: TK-10 renal
[31] = test system: MALME-3M melanoma
[32] = test system: NCI-H460 lung
[33] = test system: UO-31 renal
[34] = test system: DLD-1 colon
[35] = test system: RPMI-8226 leukemia
[36] = test system: SR leukemia
[37] = test system: COLO 205 colon
[38] = test system: K-562 leukemia
[39] = test system: KM12 colon
[40] = test system: KM20L2 colon
[41] = test system: SNB-19 CNS
[42] = test system: SK-MEL-5 melanoma
[43] = test system: HCT-116 colon
[44] = test system: DMS 114 small cell lung
[45] = test system: RXF-631 renal
[46] = test system: M19-MEL melanoma
[47] = test system: SF-268 CNS
[48] = test system: SK-MEL-28 melanoma
[49] = test system: OVCAR-5 ovarian
[50] = test system: ACHN renal
[51] = test system: SF-539 CNS
[52] = test system: XF 498 CNS
[53] = test system: A498 renal
[54] = test system: UACC-257 melanoma
[55] = test system: CCRF-CEM leukemia
[56] = test system: HL-60(TB) leukemia
[57] = test system: SK-OV-3 ovarian
[58] = test system: EKVX NSCLC

For O=C(c1ccccc1)[C@H]1Nc2ccc(Cl)cc2[C@H]2CCC[C@@H]12, the TGI [1] was 49.5 µM, the TGI [2] was over 100 µM and the TGI [3] was over 100 µM. It also gave a TGI [4] of 86.8 µM, a TGI [5] of 68.6 µM and a TGI [6] of over 100 µM. For the same compound, the TGI [7] was over 100 µM, the TGI [8] was over 100 µM and the TGI [9] was 29.2 µM. The TGI [10] was 62.2 µM, the TGI [11] was over 100 µM and the TGI [12] was 64.9 µM. For the same compound, the TGI [13] was 82.6 µM, the TGI [14] was over 100 µM and the TGI [15] was 92.5 µM. It also gave a TGI [16] of 19.9 µM, a TGI [17] of over 100 µM and a TGI [18] of over 100 µM. The TGI [19] was 59.6 µM, the TGI [20] was 75.9 µM and the TGI [21] was 78 µM. For the same compound, the TGI [22] was over 100 µM, the TGI [23] was over 100 µM and the TGI [24] was over 100 µM. It also gave a TGI [25] of over 100 µM, a TGI [26] of 63.3 µM and a TGI [27] of over 100 µM. It also gave a TGI [28] of 98.3 µM, a TGI [29] of 59.9 µM and a TGI [30] of over 100 µM. It also gave a TGI [31] of 51.3 µM, a TGI [32] of 88 µM and a TGI [33] of over 100 µM. For the same compound, the TGI [34] was over 100 µM, the TGI [35] was 57.1 µM and the TGI [36] was over 100 µM. The TGI [37] was 91.7 µM, the TGI [38] was 64.5 µM and the TGI [39] was over 100 µM. The TGI [40] was over 100 µM, the TGI [41] was over 100 µM and the TGI [42] was 23 µM. The TGI [43] was 41.5 µM, the TGI [44] was over 100 µM and the TGI [45] was over 100 µM. It also gave a TGI [46] of over 100 µM, a TGI [47] of over 100 µM and a TGI [48] of 92.6 µM. It also gave a TGI [49] of over 100 µM, a TGI [50] of 57.9 µM and a TGI [51] of over 100 µM. For the same compound, the TGI [52] was 54.2 µM.

For O=C1N[C@@H]2CCCC[C@@H]2C12CCCCC2, the TGI [2] was over 100 µM, the TGI [53] was over 100 µM and the TGI [3] was over 100 µM. It also gave a TGI [4] of over 100 µM, a TGI [5] of over 100 µM and a TGI [54] of over 100 µM. For the same compound, the TGI [7] was over 100 µM, the TGI [8] was over 100 µM and the TGI [9] was over 100 µM. The TGI [55] was over 100 µM, the TGI [10] was over 100 µM and the TGI [11] was over 100 µM. For the same compound, the TGI [12] was over 100 µM, the TGI [13] was over 100 µM and the TGI [14] was over 100 µM. For the same compound, the TGI [15] was over 100 µM, the TGI [16] was over 100 µM and the TGI [17] was over 100 µM. It also gave a TGI [19] of over 100 µM, a TGI [20] of over 100 µM and a TGI [21] of over 100 µM. For the same compound, the TGI [22] was over 100 µM, the TGI [56] was over 100 µM and the TGI [23] was over 100 µM. It also gave a TGI [24] of over 100 µM, a TGI [25] of over 100 µM and a TGI [26] of over 100 µM. The TGI [27] was over 100 µM, the TGI [30] was over 100 µM and the TGI [31] was over 100 µM. The TGI [32] was over 100 µM, the TGI [33] was over 100 µM and the TGI [34] was over 100 µM. The TGI [35] was over 100 µM, the TGI [36] was over 100 µM and the TGI [38] was over 100 µM. For the same compound, the TGI [39] was over 100 µM, the TGI [40] was over 100 µM and the TGI [41] was over 100 µM. The TGI [43] was over 100 µM, the TGI [45] was over 100 µM and the TGI [46] was over 100 µM. It also gave a TGI [57] of over 100 µM, a TGI [47] of over 100 µM and a TGI [58] of over 100 µM. The TGI [48] was over 100 µM, the TGI [49] was over 100 µM and the TGI [50] was over 100 µM. The TGI [51] was over 100 µM and the TGI [52] was over 100 µM.
